# Source: US20260285850A1, “SUBSTITUTED OXAZOLIDINONES AND IMIDAZOLINONES AS HERBICIDES” (FMC CORPORATION, priority 2023, published 2026)
# Legend:
# Assay type in all cases: in vivo
# [1] = tested on: barnyardgrass (Echinochloa crus-galli); assay: Test A preemergence soil spray, visual injury rating 0-100; settings: 10 days, 0 = no effect, 100 = complete control
# In short: (§1)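 Grow plants in loam soil blended with sand. Apply formulated compound (non-phytotoxic solvent, surfactant) as a directed soil spray before emergence, or to plants at the one- to two-leaf stage after emergence. Hold in greenhouse 10 days, then rate injury visually versus untreated controls on a 0-100 scale.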
# [2] = tested on: blackgrass (Alopecurus myosuroides); assay: as above; settings: 10 days, 0 = no effect, 100 = complete control
# In short: as §1
# corn (Zea mays) [3] = assay: as above; settings: 10 days, 0 = no effect, 100 = complete control
# In short: as §1
# [4] = tested on: green foxtail (Setaria viridis); assay: as above; settings: 10 days, 0 = no effect, 100 = complete control
# In short: as §1
# kochia (Bassia scoparia) [5] = assay: as above; settings: 10 days, 0 = no effect, 100 = complete control
# In short: as §1
# [6] = tested on: oat, wild (wild oat, Avena fatua); assay: as above; settings: 10 days, 0 = no effect, 100 = complete control
# In short: as §1
# [7] = tested on: palmer (palmer amaranth, palmer pigweed, Amaranthus palmeri); assay: as above; settings: 10 days, 0 = no effect, 100 = complete control
# In short: as §1
# [8] = tested on: ragweed (common ragweed, Ambrosia artemisiifolia); assay: as above; settings: 10 days, 0 = no effect, 100 = complete control
# In short: as §1
# [9] = tested on: ryegrass, Italian (italian ryegrass, Lolium multiflorum); assay: as above; settings: 10 days, 0 = no effect, 100 = complete control
# In short: as §1
# soybean (Glycine max) [10] = assay: as above; settings: 10 days, 0 = no effect, 100 = complete control
# In short: as §1
# [11] = tested on: wheat (Triticum aestivum); assay: as above; settings: 10 days, 0 = no effect, 100 = complete control
# In short: as §1
# [12] = tested on: barnyardgrass (Echinochloa crus-galli); assay: Test A postemergence application, visual injury rating 0-100; settings: 10 days
# In short: as §1
# [13] = tested on: blackgrass (Alopecurus myosuroides); assay: as above; settings: 10 days
# In short: as §1
# corn (Zea mays) [14] = assay: as above; settings: 10 days
# In short: as §1
# [15] = tested on: galium (catchweed bedstraw, Galium aparine); assay: as above; settings: 10 days
# In short: as §1
# [16] = tested on: green foxtail (Setaria viridis); assay: as above; settings: 10 days
# In short: as §1
# [17] = tested on: horseweed (Erigeron canadensis); assay: as above; settings: 10 days
# In short: as §1
# kochia (Bassia scoparia) [18] = assay: as above; settings: 10 days
# In short: as §1
# [19] = tested on: oat, wild (wild oat, Avena fatua); assay: as above; settings: 10 days
# In short: as §1
# [20] = tested on: palmer (palmer amaranth, palmer pigweed, Amaranthus palmeri); assay: as above; settings: 10 days
# In short: as §1
# [21] = tested on: ragweed (common ragweed, Ambrosia artemisiifolia); assay: as above; settings: 10 days
# In short: as §1
# [22] = tested on: ryegrass, Italian (italian ryegrass, Lolium multiflorum); assay: as above; settings: 10 days
# In short: as §1
# soybean (Glycine max) [23] = assay: as above; settings: 10 days
# In short: as §1
# [24] = tested on: wheat (Triticum aestivum); assay: as above; settings: 10 days
# In short: as §1
# [25] = tested on: barnyardgrass (Echinochloa crusgalli); assay: Test B flooded paddy test, visual plant response rating 0-100; settings: 250 g ai/ha, Flood, applied to paddy water, evaluated after 13 days
# In short: (§2)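 Visual evaluation after 13 days. Water-applied treatment, 3 cm flood depth held constant, plants at 2-leaf stage at treatment.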
# [26] = tested on: ducksalad (Heteranthera limosa); assay: as above; settings: 250 g ai/ha, Flood, applied to paddy water, evaluated after 13 days
# In short: as §2
# rice (Oryza sativa) = assay: as above; settings: 250 g ai/ha, Flood, applied to paddy water, evaluated after 13 days
# In short: as §2
# [27] = tested on: sedge, umbrella (small-flower umbrella sedge, Cyperus difformis); assay: as above; settings: 250 g ai/ha, Flood, applied to paddy water, evaluated after 13 days
# In short: as §2
# [28] = 31 g ai/ha, postemergence, 0 = no effect, 100 = complete control
# [29] = Postemergence, 125 g ai/ha, 0 is no effect, 100 is complete control
smiles,measurement,setting,value
CCOC(=O)C1C=CC(NC(=O)C2(C)CN(c3cc(F)cc(Cl)c3)C(=O)O2)C1 (stereo not shown) [Compound 3],Barnyardgrass plant response rating (0-100),[1]; 31 g ai/ha,90
same,Barnyardgrass plant response rating (0 to 100 scale),[1]; 125 g ai/ha,100
same,Blackgrass plant response rating (0-100),[2]; 31 g ai/ha,0
same,Blackgrass plant response rating (0 to 100 scale),[2]; 125 g ai/ha,70
same,Corn plant response rating (0-100),corn (Zea mays) [3]; 31 g ai/ha,50
same,Corn plant response rating (0 to 100 scale),corn (Zea mays) [3]; 125 g ai/ha,50
same,"Foxtail, Green plant response rating (0-100)",[4]; 31 g ai/ha,30
same,"Foxtail, Green plant response rating (0 to 100 scale)",[4]; 125 g ai/ha,100
same,Kochia plant response rating (0-100),kochia (Bassia scoparia) [5]; 31 g ai/ha,70
same,Kochia plant response rating (0 to 100 scale),kochia (Bassia scoparia) [5]; 125 g ai/ha,100
same,"Oat, Wild plant response rating (0-100)",[6]; 31 g ai/ha,10
same,"Oat, Wild plant response rating (0 to 100 scale)",[6]; 125 g ai/ha,90
same,"Amaranth, Palmer plant response rating (0-100)",[7]; 31 g ai/ha,80
same,"Amaranth, Palmer plant response rating (0 to 100 scale)",[7]; 125 g ai/ha,100
same,Ragweed plant response rating (0-100),[8]; 31 g ai/ha,10
same,Ragweed plant response rating (0 to 100 scale),[8]; 125 g ai/ha,30
same,"Ryegrass, Italian plant response rating (0-100)",[9]; 31 g ai/ha,50
same,"Ryegrass, Italian plant response rating (0 to 100 scale)",[9]; 125 g ai/ha,90
same,Soybean plant response rating (0-100),soybean (Glycine max) [10]; 31 g ai/ha,20
same,Soybean plant response rating (0 to 100 scale),soybean (Glycine max) [10]; 125 g ai/ha,80
same,Wheat plant response rating (0-100),[11]; 31 g ai/ha,50
same,Wheat plant response rating (0 to 100 scale),[11]; 125 g ai/ha,90
same,Barnyardgrass plant response rating (0-100),[12]; [28],100
same,Barnyardgrass plant response rating (0 to 100 scale),[12]; [29],100
same,Blackgrass plant response rating (0-100),[13]; [28],80
same,Blackgrass plant response rating (0 to 100 scale),[13]; [29],90
same,Corn plant response rating (0-100),corn (Zea mays) [14]; [28],100
same,Corn plant response rating (0 to 100 scale),corn (Zea mays) [14]; [29],100
same,Galium plant response rating (0-100),[15]; [28],80
same,Galium plant response rating (0 to 100 scale),[15]; [29],90
same,"Foxtail, Green plant response rating (0-100)",[16]; [28],90
same,"Foxtail, Green plant response rating (0 to 100 scale)",[16]; [29],90
same,Horseweed plant response rating (0-100),[17]; [28],50
same,Horseweed plant response rating (0 to 100 scale),[17]; [29],80
same,Kochia plant response rating (0-100),kochia (Bassia scoparia) [18]; [28],70
same,Kochia plant response rating (0 to 100 scale),kochia (Bassia scoparia) [18]; [29],70
same,"Oat, Wild plant response rating (0-100)",[19]; [28],90
same,"Oat, Wild plant response rating (0 to 100 scale)",[19]; [29],90
same,"Amaranth, Palmer plant response rating (0-100)",[20]; [28],50
same,"Amaranth, Palmer / Pigweed, Palmer plant response rating (0 to 100 scale)",[20]; [29],70
same,Ragweed plant response rating (0-100),[21]; [28],50
same,Ragweed plant response rating (0 to 100 scale),[21]; [29],80
same,"Ryegrass, Italian plant response rating (0-100)",[22]; [28],80
same,"Ryegrass, Italian plant response rating (0 to 100 scale)",[22]; [29],90
same,Soybean plant response rating (0-100),soybean (Glycine max) [23]; [28],90
same,Soybean plant response rating (0 to 100 scale),soybean (Glycine max) [23]; [29],90
same,Wheat plant response rating (0-100),[24]; [28],90
same,Wheat plant response rating (0 to 100 scale),[24]; [29],90
same,"Plant response rating, Barnyardgrass (0 to 100 scale, 0 is no effect and 100 is complete control)",[25],95
same,"Plant response rating, Ducksalad (0 to 100 scale, 0 is no effect and 100 is complete control)",[26],90
same,"Plant response rating, Rice (0 to 100 scale, 0 is no effect and 100 is complete control)",rice (Oryza sativa),70
same,"Plant response rating, Sedge, Umbrella (0 to 100 scale, 0 is no effect and 100 is complete control)",[27],100
